By melting point is commonly meant the temperature of the solid-liquid transition.

The text below walks through data of patent US6423376B1, “Tartaric acid diesters as biodegradable surfactants” (Air Products and Chemicals, Inc., priority 2000, dated 2002).

Structures can show the parent of a compound that is named as a salt.

Data set [1] can be described thus: Dynamic surface tension of aqueous solutions, maximum bubble pressure method. It is filed as physicochemical. The source says: where R1 and R2 are independently a C4 to C6 alkyl group, but preferably are the same; provided that when the water-based composition is an ink, R1 and R2 are independently a C5 or C6 alkyl group. […] The maximum-bubble-pressure method of measuring surface tension is described in Langmuir 1986, 2, 428-432, which is incorporated by reference.
In the following Examples dynamic surface tension data were obtained for aqueous solutions of various compounds using the maximum bubble pressure method at bubble rates from 0.1 bubbles/second (b/s) to 20 b/s. […] In practical terms, high bubble rates correspond to high printing speeds in lithographic printing, high spray or roller velocities in coating applications, and rapid application rates for agricultural products.
Dynamic surface tension data were obtained for a 0.1 wt % aqueous solution of the 9.5 mole ethoxylate of nonylphenol using the maximum bubble pressure method at bubble rates from 0.1 bubbles/second (b/s) to 20 b/s.
(§1) Solutions of the materials of Examples 1-12 in distilled water were prepared. […] The pC20 value is defined as the negative logarithm of the molar concentration of surfactant required to decrease the surface tension of an aqueous solution to 52.1 dyne/cm, that is, 20 dyne/cm below that of pure water when the measurement is performed at 0.1 b/s. This value is a measure of the efficiency of a surfactant. […] In addition, the relative efficiency of surfactants can be obtained by comparing surface tension reduction of solutions containing the same amount of different surfactants. Such data is given for 0.1 wt % solutions of the tartrates at 1.0 and 6.0 bubbles/second (b/s). The solubility limit was determined by intersection of the linear portion of a surface tension/In concentration curve with the limiting surface tension as is described in many textbooks. The limiting surface tensions at 0.1, 1, 6 and 20 b/s represent the lowest surface tensions in water which can be achieved at the given surface creation rates for a given surfactant regardless of the amount of surfactant used and is used to evaluate the effectiveness of a surfactant. These values give information about the relative ability to a surfactant to reduce surface defects under near-equilibrium conditions (0.1 b/s) through very dynamic conditions (20 b/s). Lower surface tensions would allow the elimination of defects upon application of a formulation onto lower energy surfaces.

Data set [2] in a line: Solubility limit in water from surface tension/ln concentration curve. Format: physicochemical. The following applies: in distilled water. Here is the method: as §1
Data set [3] is described as follows: Foam test based upon ASTM D 1173-53. Format: physicochemical. The settings on record: 0.1 wt % solution. The source says: The foaming properties of a 0.1 wt % solution of the comparative example (nonylphenol 9.5 mole ethoxylate) and various dialkyltartrates (diisopropyl-(D)-tartrate, dibutyl-L-tartrate. diisobutyl-DL-tartrate, di-sec-butyl-DL-tartrate, dipentyl-DL-tartrate, diisoamyl-DL-tartrate, di-(2-methyl-butyl)-DL-tartrate, dineopentyl-DL-tartrate, dihexyl-DL-tartrate, di-(4-methyl-2-pentyl)-DL-tartrate, dibenzyl-DL-tartrate and di-(2-ethyl-hexyl)-DL-tartrate) were examined using a procedure based upon ASTM D 1173-53. In this test, a 0.1 wt % solution of the surfactant is added from an elevated foam pipette to a foam receiver containing the same solution. The foam height is measured at the completion of the addition (“Initial Foam Height”) and the time required for the foam to dissipate at the air-liquid interface (“Time to 0 Foam”) is recorded. This test provides a comparison between the foaming characteristics of various surfactants. In general, in coatings, inks, adhesives and agricultural formulations, foam is undesirable because is complicates handling and can lead to coating and print defects, and to inefficient application of agricultural materials.

In turn, `CC(C)(C)COC(=O)C(O)C(O)C(=O)OCC(C)(C)C` (racemic) (as salt: tartrate) [Example 8, Dineopentyl-DL-tartrate] returned a melting point of 75 °C.
Turning to `CCC(C)COC(=O)C(O)C(O)C(=O)OCC(C)CC` (racemic) [Example 7, Di(2-methyl-butyl)-DL-tartrate], in data set [1] (0.1 wt % solution, 1 b/s), the “γ (0.1 wt % solution) (1 b/s)” value was found to be 39.0 Dyne/cm. Also, the “γ (0.1 wt % solution) (6 b/s)” value in data set [1] (0.1 wt % solution, 6 b/s) is reported as 39.8 Dyne/cm. Further, the “limiting γ (0.1 b/s)” value in data set [1] (lowest surface tension in water, 0.1 b/s) worked out at 35.6 Dyne/cm. The “limiting γ (1 b/s)” value in data set [1] (lowest surface tension in water, 1 b/s) is recorded as 36.0 Dyne/cm. Besides, in data set [1] (lowest surface tension in water, 6 b/s), the “limiting γ (6 b/s)” value came out at 36.0 Dyne/cm. In addition, the “limiting γ (20 b/s)” value in data set [1] (lowest surface tension in water, 20 b/s) was 38.5 Dyne/cm. Besides, the pC20 in data set [1] (negative logarithm of molar concentration giving 52.1 dyne/cm at 0.1 b/s) amounted to 3.2. This compound showed a solubility limit in data set [2] of 0.1 Weight %. In data set [3], this compound gave an initial foam of 0 cm. In data set [3] (unit not given), the “time to zero foam” value is reported as 0.
